Source: article PMC11813896, “Bis(7)-harmine derivatives as potential multi-target anti-Alzheimer agents” (Frontiers in Chemistry, 2025)

Target: hAChE (Homo sapiens, UniProt P22303)
Experiment: biochemical
Settings: not given
Procedure: 50 μL of hAChE (0.02 unit/mL) or hBChE (0.02 unit/mL) were incubated with 10 μL of the compound in 96-well plates at 37°C for 6 min. Subsequently, 30 μL of a substrate solution containing acetylthiocholine iodide (ATCI) or butyrylthiocholine iodide (BTCI) at a concentration of 0.01 M was added, and the mixture was further incubated at 37°C for an additional duration of 12 min.

hAChE, sequence (P22303 32-614): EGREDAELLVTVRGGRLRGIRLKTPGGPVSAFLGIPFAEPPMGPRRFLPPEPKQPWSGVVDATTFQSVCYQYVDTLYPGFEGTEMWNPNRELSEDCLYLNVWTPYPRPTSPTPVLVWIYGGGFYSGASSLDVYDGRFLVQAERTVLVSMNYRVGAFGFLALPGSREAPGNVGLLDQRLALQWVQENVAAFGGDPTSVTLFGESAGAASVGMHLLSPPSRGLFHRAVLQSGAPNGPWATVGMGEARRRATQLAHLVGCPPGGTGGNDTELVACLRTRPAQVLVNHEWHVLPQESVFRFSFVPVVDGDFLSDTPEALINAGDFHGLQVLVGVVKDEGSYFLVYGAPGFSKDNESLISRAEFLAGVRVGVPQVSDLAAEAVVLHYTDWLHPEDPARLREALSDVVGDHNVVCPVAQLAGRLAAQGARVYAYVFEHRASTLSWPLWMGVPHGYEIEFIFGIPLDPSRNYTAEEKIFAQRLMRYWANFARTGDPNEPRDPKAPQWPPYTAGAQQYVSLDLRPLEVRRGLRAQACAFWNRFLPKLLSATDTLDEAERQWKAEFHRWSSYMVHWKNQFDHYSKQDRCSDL

SMILES	S.I. Selectivity index IC50(hBuChE)/IC50(hAChE)
CCn1c2cc(OCCCCCOc3ccc4c5ccnc(C)c5n(CC)c4c3)ccc2c2ccnc(C)c21 [Compound 5b, 1,5-bis ((9-ethyl-1-methyl-9H-pyrido [3,4-b]indol-7-yl)oxy)pentane]	8.1
CCCn1c2cc(OCCCCCOc3ccc4c5ccnc(C)c5n(CCC)c4c3)ccc2c2ccnc(C)c21 [Compound 5c, 1,5-bis ((1-methyl-9-propyl-9H-pyrido [3,4-b]indol-7-yl)oxy)pentane]	>13.7
C=CCn1c2cc(OCCCCCOc3ccc4c5ccnc(C)c5n(CC=C)c4c3)ccc2c2ccnc(C)c21 [Compound 5d, 1,5-bis ((9-allyl-1-methyl-9H-pyrido [3,4-b]indol-7-yl)oxy)pentane]	>3.4
Cc1nccc2c3ccc(OCCCCCCOc4ccc5c6ccnc(C)c6n(C)c5c4)cc3n(C)c12 [Compound 6a, 1,6-bis ((1,9-dimethyl-9H-pyrido [3,4-b]indol-7-yl)oxy)hexane]	0.7

Same assay, conditions: Mean ± SD from 3-5 assays; read-out: IC50 (nM) for cholinesterase hAChE

SMILES	IC50
CCn1c2cc(OCCCCCOc3ccc4c5ccnc(C)c5n(CC)c4c3)ccc2c2ccnc(C)c21 [Compound 5b, 1,5-bis ((9-ethyl-1-methyl-9H-pyrido [3,4-b]indol-7-yl)oxy)pentane]	115 ± 7.36 nM
CCCn1c2cc(OCCCCCOc3ccc4c5ccnc(C)c5n(CCC)c4c3)ccc2c2ccnc(C)c21 [Compound 5c, 1,5-bis ((1-methyl-9-propyl-9H-pyrido [3,4-b]indol-7-yl)oxy)pentane]	73.8 ± 4.28 nM
C=CCn1c2cc(OCCCCCOc3ccc4c5ccnc(C)c5n(CC=C)c4c3)ccc2c2ccnc(C)c21 [Compound 5d, 1,5-bis ((9-allyl-1-methyl-9H-pyrido [3,4-b]indol-7-yl)oxy)pentane]	288 ± 21.3 nM
Cc1nccc2c3ccc(OCCCCCCOc4ccc5c6ccnc(C)c6n(C)c5c4)cc3n(C)c12 [Compound 6a, 1,6-bis ((1,9-dimethyl-9H-pyrido [3,4-b]indol-7-yl)oxy)hexane]	493 ± 30.3 nM

Target: T1, recombinant hMAO-B (Homo sapiens, UniProt P27338)
T1 construct: purchased Sigma-Aldrich
T1 sequence (P27338 1-520): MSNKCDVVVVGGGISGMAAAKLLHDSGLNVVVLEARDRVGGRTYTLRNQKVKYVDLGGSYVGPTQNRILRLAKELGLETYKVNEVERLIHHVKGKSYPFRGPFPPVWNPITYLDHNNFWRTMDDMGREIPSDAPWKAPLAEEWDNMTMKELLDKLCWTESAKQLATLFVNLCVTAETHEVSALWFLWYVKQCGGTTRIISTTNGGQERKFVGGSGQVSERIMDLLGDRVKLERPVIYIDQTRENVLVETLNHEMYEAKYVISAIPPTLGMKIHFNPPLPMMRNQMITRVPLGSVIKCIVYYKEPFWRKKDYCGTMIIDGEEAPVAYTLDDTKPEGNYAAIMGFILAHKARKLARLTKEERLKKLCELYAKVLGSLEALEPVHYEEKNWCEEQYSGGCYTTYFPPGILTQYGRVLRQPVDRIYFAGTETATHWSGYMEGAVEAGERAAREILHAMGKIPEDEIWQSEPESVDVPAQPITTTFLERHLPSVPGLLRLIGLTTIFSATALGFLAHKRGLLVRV
Experiment: biochemical
Settings: compound at 1 μM; read-out: inhibition of hMAO-B in primary screening
Procedure: (§1) Briefly, the compounds under investigation and the reference inhibitor were preincubated with kynuramine at 37°C for 10 min in 96-well microplates. […] The enzymatic reactions were terminated by adding 400 μL of 2 N NaOH and 1,000 μL of water, followed by centrifugation at 16,000 g for 10 min. Subsequently, the concentrations of MAOs that produced 4-hydroxyquinoline were determined by measuring the fluorescence of the supernatant using a Varioskan Flash Multimode Reader ([…]) with excitation and emission wavelengths set at 310 nm and 400 nm, respectively. The IC50 values were calculated from dose-response curves and expressed as the mean ± standard deviation. These values were determined based on at least three independent experiments, each performed in triplicate.

SMILES	inhibition at 1 µM
CCn1c2cc(OCCCCCOc3ccc4c5ccnc(C)c5n(CC)c4c3)ccc2c2ccnc(C)c21 [Compound 5b, 1,5-bis ((9-ethyl-1-methyl-9H-pyrido [3,4-b]indol-7-yl)oxy)pentane]	33.7%
CCCn1c2cc(OCCCCCOc3ccc4c5ccnc(C)c5n(CCC)c4c3)ccc2c2ccnc(C)c21 [Compound 5c, 1,5-bis ((1-methyl-9-propyl-9H-pyrido [3,4-b]indol-7-yl)oxy)pentane]	27.5%
C=CCn1c2cc(OCCCCCOc3ccc4c5ccnc(C)c5n(CC=C)c4c3)ccc2c2ccnc(C)c21 [Compound 5d, 1,5-bis ((9-allyl-1-methyl-9H-pyrido [3,4-b]indol-7-yl)oxy)pentane]	29.8%

Same assay, conditions: mean ± SD; read-out: IC50 (nM) for monoamine oxidases hMAO-B

SMILES	IC50
Cc1nccc2c3ccc(OCCCCCCOc4ccc5c6ccnc(C)c6n(C)c5c4)cc3n(C)c12 [Compound 6a, 1,6-bis ((1,9-dimethyl-9H-pyrido [3,4-b]indol-7-yl)oxy)hexane]	863 ± 61.3 nM

Target: T2, recombinant hMAO-A (Homo sapiens, UniProt P21397)
T2 construct: purchased Sigma-Aldrich
T2 sequence (P21397 1-527): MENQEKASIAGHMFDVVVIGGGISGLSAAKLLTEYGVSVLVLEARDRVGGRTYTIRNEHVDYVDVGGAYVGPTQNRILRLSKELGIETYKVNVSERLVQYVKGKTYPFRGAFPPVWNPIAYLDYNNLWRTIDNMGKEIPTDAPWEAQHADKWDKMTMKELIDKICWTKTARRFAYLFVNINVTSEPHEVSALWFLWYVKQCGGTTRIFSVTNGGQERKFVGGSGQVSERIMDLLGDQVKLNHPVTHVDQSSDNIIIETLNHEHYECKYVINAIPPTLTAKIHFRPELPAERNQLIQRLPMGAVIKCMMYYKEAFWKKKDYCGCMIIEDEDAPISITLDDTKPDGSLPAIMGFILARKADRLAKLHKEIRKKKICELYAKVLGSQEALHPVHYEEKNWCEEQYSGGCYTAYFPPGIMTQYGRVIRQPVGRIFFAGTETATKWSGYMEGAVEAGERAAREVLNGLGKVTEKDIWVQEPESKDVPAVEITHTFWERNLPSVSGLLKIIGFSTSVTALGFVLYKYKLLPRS
Experiment: biochemical
Settings: not given
Procedure: as §1

SMILES	S.I. Selectivity index IC50(hMAO-B)/IC50(hMAO-A)
Cc1nccc2c3ccc(OCCCCCCOc4ccc5c6ccnc(C)c6n(C)c5c4)cc3n(C)c12 [Compound 6a, 1,6-bis ((1,9-dimethyl-9H-pyrido [3,4-b]indol-7-yl)oxy)hexane]	7.1

Same assay, conditions: compound at 1 μM; read-out: inhibition of hMAO-A in primary screening

SMILES	inhibition at 1 µM
CCn1c2cc(OCCCCCOc3ccc4c5ccnc(C)c5n(CC)c4c3)ccc2c2ccnc(C)c21 [Compound 5b, 1,5-bis ((9-ethyl-1-methyl-9H-pyrido [3,4-b]indol-7-yl)oxy)pentane]	42.4%
CCCn1c2cc(OCCCCCOc3ccc4c5ccnc(C)c5n(CCC)c4c3)ccc2c2ccnc(C)c21 [Compound 5c, 1,5-bis ((1-methyl-9-propyl-9H-pyrido [3,4-b]indol-7-yl)oxy)pentane]	39.5%
C=CCn1c2cc(OCCCCCOc3ccc4c5ccnc(C)c5n(CC=C)c4c3)ccc2c2ccnc(C)c21 [Compound 5d, 1,5-bis ((9-allyl-1-methyl-9H-pyrido [3,4-b]indol-7-yl)oxy)pentane]	41.1%

Same assay, conditions: mean ± SD; read-out: IC50 (nM) for monoamine oxidases hMAO-A

SMILES	IC50
Cc1nccc2c3ccc(OCCCCCCOc4ccc5c6ccnc(C)c6n(C)c5c4)cc3n(C)c12 [Compound 6a, 1,6-bis ((1,9-dimethyl-9H-pyrido [3,4-b]indol-7-yl)oxy)hexane]	123 ± 7.2 nM

Target: Aβ 1−42 (Homo sapiens, UniProt P05067)
Sequence (P05067 672-713 limits assumed): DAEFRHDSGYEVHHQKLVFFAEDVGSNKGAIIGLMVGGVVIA
Experiment: Thioflavin T fluorescence assay, Aβ 1−42 self-aggregation
Format: biochemical
Settings: Aβ 1-42 20 μM, 37°C, 24 h
Procedure: The thioflavin T (Th-T) fluorescence assay was used to assess the inhibition of Aβ 1−42 self-aggregation. […] Subsequently, the reaction was terminated to a final volume of 200 μL using Th-T (10 μM) solution.

SMILES	IC50
Cc1nccc2c3ccc(OCCCCCCOc4ccc5c6ccnc(C)c6n(C)c5c4)cc3n(C)c12 [Compound 6a, 1,6-bis ((1,9-dimethyl-9H-pyrido [3,4-b]indol-7-yl)oxy)hexane]	19.8 ± 1.1 µM

Same assay, conditions: compound at 20 μM

SMILES	inhibition percent ratio of self-induced Aβ 1-42 aggregation
CCn1c2cc(OCCCCCOc3ccc4c5ccnc(C)c5n(CC)c4c3)ccc2c2ccnc(C)c21 [Compound 5b, 1,5-bis ((9-ethyl-1-methyl-9H-pyrido [3,4-b]indol-7-yl)oxy)pentane]	31.8%
CCCn1c2cc(OCCCCCOc3ccc4c5ccnc(C)c5n(CCC)c4c3)ccc2c2ccnc(C)c21 [Compound 5c, 1,5-bis ((1-methyl-9-propyl-9H-pyrido [3,4-b]indol-7-yl)oxy)pentane]	29.4%
C=CCn1c2cc(OCCCCCOc3ccc4c5ccnc(C)c5n(CC=C)c4c3)ccc2c2ccnc(C)c21 [Compound 5d, 1,5-bis ((9-allyl-1-methyl-9H-pyrido [3,4-b]indol-7-yl)oxy)pentane]	43.6%

Target: hBuChE (Homo sapiens, UniProt P06276)
Sequence (P06276 29-602): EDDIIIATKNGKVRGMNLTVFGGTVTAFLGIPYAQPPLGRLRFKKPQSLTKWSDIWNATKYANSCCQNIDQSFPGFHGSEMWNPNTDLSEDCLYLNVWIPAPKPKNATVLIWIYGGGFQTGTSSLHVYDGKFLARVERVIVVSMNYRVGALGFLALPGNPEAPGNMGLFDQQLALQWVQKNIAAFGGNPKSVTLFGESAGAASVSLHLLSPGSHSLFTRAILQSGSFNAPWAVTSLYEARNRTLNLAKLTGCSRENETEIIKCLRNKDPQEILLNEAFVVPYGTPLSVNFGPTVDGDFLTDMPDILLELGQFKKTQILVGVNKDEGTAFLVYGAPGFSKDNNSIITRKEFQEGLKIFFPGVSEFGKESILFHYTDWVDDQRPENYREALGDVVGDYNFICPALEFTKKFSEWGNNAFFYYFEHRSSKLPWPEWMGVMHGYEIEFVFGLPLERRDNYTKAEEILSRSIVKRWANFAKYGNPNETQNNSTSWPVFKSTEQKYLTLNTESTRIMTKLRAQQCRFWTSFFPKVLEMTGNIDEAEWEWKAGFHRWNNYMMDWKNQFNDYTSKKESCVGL
Experiment: Ellman's assay, hBuChE inhibition
Format: biochemical
Settings: Mean ± SD from 3-5 assays; read-out: IC50 (nM) for cholinesterase hBuChE
Procedure: The Ellman’s assay was utilized to assess the inhibitory potential of novel bis(7)-harmine derivatives against hAChE and hBuChE. 50 μL of hAChE (0.02 unit/mL) or hBChE (0.02 unit/mL) were incubated with 10 μL of the compound in 96-well plates at 37°C for 6 min. Subsequently, 30 μL of a substrate solution containing acetylthiocholine iodide (ATCI) or butyrylthiocholine iodide (BTCI) at a concentration of 0.01 M was added, and the mixture was further incubated at 37°C for an additional duration of 12 min. Finally, the activity was measured by adding 150 μL of a solution containing 5,5′−dithiobis (2-nitrobenzoic acid) (DTNB) at a concentration of 0.01 M, followed by measuring absorbance at a wavelength of 415 nm using an Evolution 300 PC UV-Vis Spectrophotometer.

SMILES	IC50
CCn1c2cc(OCCCCCOc3ccc4c5ccnc(C)c5n(CC)c4c3)ccc2c2ccnc(C)c21 [Compound 5b, 1,5-bis ((9-ethyl-1-methyl-9H-pyrido [3,4-b]indol-7-yl)oxy)pentane]	928 ± 62.1 nM
Cc1nccc2c3ccc(OCCCCCCOc4ccc5c6ccnc(C)c6n(C)c5c4)cc3n(C)c12 [Compound 6a, 1,6-bis ((1,9-dimethyl-9H-pyrido [3,4-b]indol-7-yl)oxy)hexane]	331 ± 21.5 nM

Same assay, conditions: compound at 1 μM; read-out: inhibition of hBuChE in primary screening

SMILES	inhibition at 1 µM
CCCn1c2cc(OCCCCCOc3ccc4c5ccnc(C)c5n(CCC)c4c3)ccc2c2ccnc(C)c21 [Compound 5c, 1,5-bis ((1-methyl-9-propyl-9H-pyrido [3,4-b]indol-7-yl)oxy)pentane]	45.6%
C=CCn1c2cc(OCCCCCOc3ccc4c5ccnc(C)c5n(CC=C)c4c3)ccc2c2ccnc(C)c21 [Compound 5d, 1,5-bis ((9-allyl-1-methyl-9H-pyrido [3,4-b]indol-7-yl)oxy)pentane]	41.2%
